Source: ChEMBL document CHEMBL1156093, “Synthesis and biological activity of dialkylphosphocholines” (Bioorg Med Chem Lett, 2009)
Values after ≈ are worked out from the molar mass of the structure shown.

Key:
Candida albicans = assay: Antifungal activity against Candida albicans; format: functional
HeLa = assay: Cytotoxicity against human HeLa cells; format: functional, cell-based
Acanthamoeba lugdunensis = assay: Antiprotozoal activity against Acanthamoeba lugdunensis; format: functional
HFL1 = assay: Cytotoxicity against human HFL1 cells; format: cell-based

For CCCCCCCCCCCCCCCC[N+](C)(C)CCOP(=O)([O-])OCCCCCC, the MFC (Candida albicans) was 19.3 µM (≈ 9.22 µg/mL), the IC50 (HeLa) was 170 µM and the MTC (Acanthamoeba lugdunensis) was >400 µM. The IC50 (HFL1) was 110 µM.
CCCCCCCCCCOP(=O)([O-])OCC[N+](C)(C)CCCCCCCCCC was tested, and the MFC (Candida albicans) was 20.5 µM (≈ 9.22 µg/mL) and the MTC (Acanthamoeba lugdunensis) was 25 µM.
For CCCCCCCCCCCCCCCCCCCCOP(=O)([O-])OCC[N+](C)(C)CC, the MFC (Candida albicans) was 619 µM (≈ 296 µg/mL), the IC50 (HeLa) was 20.3 µM and the MTC (Acanthamoeba lugdunensis) was >400 µM. For the same compound, the IC50 (HFL1) was 27.2 µM.
In the case of CCCCCCCCCCCCCCOP(=O)([O-])OCC[N+](C)(C)CCCCCCCC, the MFC (Candida albicans) is reported as 19.3 µM (≈ 9.22 µg/mL) and the MTC (Acanthamoeba lugdunensis) is reported as >400 µM.
For CCCCCCCCCCCC[N+](C)(C)CCOP(=O)([O-])OCCCCCCCCCC, the MFC (Candida albicans) was 19.3 µM (≈ 9.22 µg/mL), the IC50 (HeLa) was 118 µM and the MTC (Acanthamoeba lugdunensis) was >400 µM. It also gave an IC50 (HFL1) of 43.8 µM.
For CCCCCCCCCCCC[N+](C)(C)CCCCCCCCCCOP(=O)([O-])OCCCCCCCCCC, the MFC (Candida albicans) was 8100 µM (≈ 4780 µg/mL) and the MTC (Acanthamoeba lugdunensis) was >400 µM.
With CCCCCCCCCCCCCCCCCCOP(=O)([O-])OCC[N+](C)(C)CCCC the MFC (Candida albicans) was 19.3 µM (≈ 9.22 µg/mL), the IC50 (HeLa) was 161 µM and the MTC (Acanthamoeba lugdunensis) was >400 µM. For the same compound, the IC50 (HFL1) was 113 µM.
For CCCCCCCCCCCCCCCCCCCC[N+](C)(C)CCOP(=O)([O-])OCC, the MFC (Candida albicans) was 1240 µM (≈ 592 µg/mL) and the MTC (Acanthamoeba lugdunensis) was >400 µM.
In the case of CCCCCCCCCCCCCCCCCC[N+](C)(C)CCOP(=O)([O-])OCCCC, the MFC (Candida albicans) is reported as 9.7 µM (≈ 4.63 µg/mL) and the MTC (Acanthamoeba lugdunensis) is reported as >400 µM.
In the case of CCCCCCCCCCCC[N+](C)(C)CCCCOP(=O)([O-])OCCCCCCCCCC, the MFC (Candida albicans) is reported as 18.6 µM (≈ 9.41 µg/mL), the IC50 (HeLa) is reported as 148 µM and the MTC (Acanthamoeba lugdunensis) is reported as 200 µM. For the same compound, the IC50 (HFL1) was 94.6 µM.
CCCCCCCCCCCC[N+](C)(C)CCCOP(=O)([O-])OCCCCCCCCCC was tested, and the MFC (Candida albicans) was 9.4 µM (≈ 4.62 µg/mL), the IC50 (HeLa) was 112 µM and the MTC (Acanthamoeba lugdunensis) was 100 µM. It also gave an IC50 (HFL1) of 57.7 µM.
For CCCCCCCCCCCCCC[N+](C)(C)CCOP(=O)([O-])OCCCCCCCC, the MFC (Candida albicans) was 9.7 µM (≈ 4.63 µg/mL) and the MTC (Acanthamoeba lugdunensis) was >400 µM.
CCCCCCCCCCCCCCCCOP(=O)([O-])OCC[N+](C)(C)CCCCCC was tested, and the MFC (Candida albicans) was 77.4 µM (≈ 37 µg/mL) and the MTC (Acanthamoeba lugdunensis) was >400 µM.
CCCCCCCCCCCCCCCCOP(=O)([O-])OCC[N+](C)(C)C [MILTEFOSINE] was tested, and the MFC (Candida albicans) was 4 µM (≈ 1.63 µg/mL), the IC50 (HeLa) was 129 µM and the MTC (Acanthamoeba lugdunensis) was 400 µM. For the same compound, the IC50 (HFL1) was 203 µM.
For CCCCCCCCCCCCOP(=O)([O-])OCC[N+](C)(C)CCCCCCCCCC, the MFC (Candida albicans) was 9.7 µM (≈ 4.63 µg/mL), the IC50 (HeLa) was 131 µM and the MTC (Acanthamoeba lugdunensis) was >400 µM. For the same compound, the IC50 (HFL1) was 58.8 µM.
CCCCCCCCCCCC[N+](C)(C)CCCCCCOP(=O)([O-])OCCCCCCCCCC was tested, and the MFC (Candida albicans) was 34.8 µM (≈ 18.6 µg/mL) and the MTC (Acanthamoeba lugdunensis) was >400 µM.
CCCCCCCCCC[N+](C)(C)CC[N+](C)(C)CCCCCCCCCC.[Br-].[Br-] showed an MFC (Candida albicans) of 17.5 µM and an MTC (Acanthamoeba lugdunensis) of 200 µM.
